US20260234211A1, “POLYPEPTIDE HAVING MODIFIED STRUCTURE AND USE THEREOF” (Guangdong Raynovent Biotech Co., Ltd., priority 2023, published 2026)

Key:
[1] = Pharmacokinetic properties in Cynomolgus macaques; conditions: cynomolgus monkey, in vivo
Outline: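 Non-juvenile male cynomolgus macaques were used, three per compound. Plasma was sampled from 1 h to 240 h after administration. Drug levels were quantified by LC-MS/MS and pharmacokinetic parameters calculated from the concentration–time data.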

[2] = target: T1, GCGR (Homo sapiens, UniProt P47871); assay: In vitro GCGR agonistic activity test (cAMP, HEK293 cell line); type: cell-based; conditions: cAMP, HEK293 cells expressing GCGR; read-out: GCG EC50
T1 construct: host or cells: HEK293
T1 sequence (P47871 26-477, species assumed): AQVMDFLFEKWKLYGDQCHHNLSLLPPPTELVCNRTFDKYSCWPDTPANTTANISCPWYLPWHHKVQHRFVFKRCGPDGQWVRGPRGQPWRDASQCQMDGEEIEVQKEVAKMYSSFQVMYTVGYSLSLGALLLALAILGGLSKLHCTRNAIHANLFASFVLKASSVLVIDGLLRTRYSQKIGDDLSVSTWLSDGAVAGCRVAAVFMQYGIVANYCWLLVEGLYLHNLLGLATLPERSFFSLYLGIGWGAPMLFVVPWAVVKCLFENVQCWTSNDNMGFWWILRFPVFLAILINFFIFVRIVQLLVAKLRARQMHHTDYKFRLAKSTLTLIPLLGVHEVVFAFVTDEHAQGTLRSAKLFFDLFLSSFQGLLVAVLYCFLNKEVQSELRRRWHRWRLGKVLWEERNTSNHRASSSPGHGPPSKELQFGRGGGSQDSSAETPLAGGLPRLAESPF
Procedure: (§1) The cell lines were constructed by Pharmaron Inc. See details in the table below.
(§2) The test compounds were diluted at a 5-fold dilution factor in 10 points, starting from an initial concentration of 200 nM.
(§3) 1) The cell lines were cultured respectively in complete medium at 37° C. and 5% CO2.
2) After digestion with TrypLE, the cells were re-suspended in experimental buffer respectively, and inoculated in a CulturPlate-384 cell culture plate at a density of 2000 cells/well and at a volume of 15 μL/well.
(§4) 1) Eu-cAMP tracer was freeze-thawed and diluted 50 fold with detection buffer; and Ulight-anti-cAMP was freeze-thawed and diluted 150 fold with detection buffer.
2) 5 μL of the test compounds were added respectively into experimental wells of the CulturPlate-384 cell culture plate, which was centrifuged at 200 g for 30 s, and left for stand at 37° C. for 30 min.
(§5) 3) 10 μL of Eu-cAMP tracer was added and then 10 μL of Uligh-anti-cAMP was added into experimental wells respectively.
(§6) 4) The reaction plate was centrifuged at 200 g at room temperature for 30 s and left for stand at 25° C. for 1 h.
5) Envision 2105 was used to collect data, with excitation light at 340 nm and emission light at 665 nm and 615 nm.

[3] = Metabolic stability in human kidney S9; type: in vitro ADME; conditions: human, s9
Outline: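 Human kidney S9 (1 mg/mL final) with NADPH and UDPGA cofactors, test compound at 1 μM final, incubated at 37°C. Aliquots quenched with acetonitrile at 0.5, 5, 15, 30 and 60 min; LC-MS/MS peak areas used to derive depletion slopes.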

[4] = target: T2, GLP-1R (Homo sapiens, UniProt P43220); assay: In vitro GLP-1R agonistic activity test (cAMP, HEK293 cell line); type: cell-based; conditions: cAMP, HEK293 cells expressing GLP-1R; read-out: GLP-1 EC50
T2 construct: host or cells: HEK293
T2 sequence (P43220 24-463, species assumed): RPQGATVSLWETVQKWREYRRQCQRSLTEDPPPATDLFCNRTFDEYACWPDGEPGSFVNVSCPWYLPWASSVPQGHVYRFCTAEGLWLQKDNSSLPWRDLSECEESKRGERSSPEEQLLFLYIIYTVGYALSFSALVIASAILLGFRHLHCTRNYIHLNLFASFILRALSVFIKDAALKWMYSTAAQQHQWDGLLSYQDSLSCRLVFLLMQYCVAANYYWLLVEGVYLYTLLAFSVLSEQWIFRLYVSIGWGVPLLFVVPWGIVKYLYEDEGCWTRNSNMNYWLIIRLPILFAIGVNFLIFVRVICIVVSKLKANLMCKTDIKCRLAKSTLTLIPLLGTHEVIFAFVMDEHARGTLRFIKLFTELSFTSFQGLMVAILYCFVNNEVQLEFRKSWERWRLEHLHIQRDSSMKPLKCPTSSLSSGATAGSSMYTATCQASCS
Outline: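 GIPR in CHO cells and GLP-1R in HEK293 cells; compounds tested in 10-point 5-fold dilutions from 200 nM. cAMP detected with Eu-cAMP tracer and Ulight-anti-cAMP (TR-FRET) after 1 h at 25° C.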

[5] = target: T3, GIPR (Homo sapiens, UniProt P48546); assay: In vitro GIPR agonistic activity test (cAMP, CHO cell line); type: cell-based; conditions: CHO cells expressing GIPR, read-out: GIP-1 EC50
T3 construct: host or cells: CHO
T3 sequence (P48546 22-466): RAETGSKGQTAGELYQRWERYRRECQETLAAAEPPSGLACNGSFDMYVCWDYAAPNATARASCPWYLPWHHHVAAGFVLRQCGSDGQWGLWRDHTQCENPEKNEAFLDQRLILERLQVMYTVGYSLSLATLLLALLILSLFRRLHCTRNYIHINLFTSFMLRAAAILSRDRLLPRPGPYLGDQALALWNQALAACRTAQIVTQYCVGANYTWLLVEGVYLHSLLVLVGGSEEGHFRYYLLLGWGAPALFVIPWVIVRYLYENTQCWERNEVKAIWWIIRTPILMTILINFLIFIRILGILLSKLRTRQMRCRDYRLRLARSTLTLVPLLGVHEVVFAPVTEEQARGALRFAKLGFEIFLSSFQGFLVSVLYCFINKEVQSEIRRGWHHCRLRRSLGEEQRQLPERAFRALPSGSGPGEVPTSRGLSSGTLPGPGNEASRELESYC
Procedure: as §1, §2, §3, §4, §5, §6

[6] = test system: DIO obesity mouse model; assay: Pharmacodynamics in DIO obesity mouse model; type: in vivo; conditions: DIO mice
From the text: Experimental purpose: To evaluate the effects of multiple administration of the test substance (compound) on body weight and glucolipid metabolism.
In this experiment, mice were used as test animals, which were induced with a high-fat diet (Research Diets: D12492) from 4-5 weeks old for 8 weeks, and the animals were grouped according to their body weights and fasting blood glucose levels, with the average body weight of the model animals being 47.2±0.3 g, the average body weight of the control animals being 27.9±0.3 g, the average fasting blood glucose of the model animals being 8.8±0.2 mmol/L, and the average fasting blood glucose of the control animals being 6.0±0.2 mmol/L. There were six animals in each group. The animals were administered immediately after grouping and were administered by subcutaneous injection every 3 days for 22 consecutive days. Both the normal control and model groups were given with vehicle (20 mM citrate buffer). Body weight and food intake were measured twice a week. Fasting blood glucose was tested on Days 10 and 20, OGTT test was performed on Day 20, and blood was collected on Day 23 to test the liver function indicators (ALT, AST, ALP) and serum lipid metabolism indicators (TC, TG, HDL, LDL). Liver tissues were taken to calculate organ indexes, and liver lipid metabolism indicators (hepatic TC, TG) were detected. The liver tissues were examined pathologically (HE, Oil Red) to evaluate the effects of the test substances on body weight and glucolipid metabolism in a high-fat diet-induced obesity mouse model.
The experimental data of each group of animals was described as mean±standard error (X±SEM). P<0.05 indicated the statistically significant difference. All statistical analysis was completed using Graphpad 8.0 software.

## CC[C@H](C)[C@H](NC(=O)[C@H](Cc1ccccc1)NC(=O)[C@H](C)NC(=O)C(C)(C)NC(=O)[C@H](CCC(N)=O)NC(=O)[C@H](C)NC(=O)[C@H](CCCCNC(=O)COCCOCCNC(=O)CC[C@H](NC(=O)CCCCCCCCCCCCCCCCCCC(=O)O)C(=O)O)NC(=O)[C@H](CCCCN)NC(=O)[C@H](CC(=O)O)NC(=O)[C@H](CC(C)C)NC(=O)[C@](C)(CC(C)C)NC(=O)[C@@H](NC(=O)[C@H](CO)NC(=O)[C@H](Cc1ccc(O)cc1)NC(=O)[C@H](CC(=O)O)NC(=O)[C@H](CO)NC(=O)[C@@H](NC(=O)[C@H](Cc1ccccc1)NC(=O)[C@@H](NC(=O)CNC(=O)[C@H](CCC(N)=O)NC(=O)C(C)(C)NC(=O)[C@@H](N)Cc1ccc(O)cc1)[C@@H](C)O)[C@@H](C)O)[C@@H](C)CC)C(=O)N[C@@H](CCC(=O)O)C(=O)N[C@@H](Cc1ccc(O)cc1)C(=O)N[C@@H](CC(C)C)C(=O)N[C@@H](CC(C)C)C(=O)N[C@@H](CCC(=O)O)C(=O)NCC(=O)NCC(=O)N1CCC[C@H]1C(=O)N[C@@H](CO)C(=O)N[C@@H](CO)C(=O)NCC(=O)N[C@@H](C)C(=O)N1CCC[C@H]1C(=O)N1CCC[C@H]1C(=O)N1CCC[C@H]1C(=O)N[C@@H](CO)C(N)=O [LY3437943, reference compound]
[1]
  AUC(0-inf): 2.93 µM·h
  AUC(0-t): 2.7 µM·h
  Cmax: 22.1 nM
  Tmax: 29.3 h
  half-life: 58.8 h
[2]
  EC50: 31 pM
[3]
  half-life: > 3.08 h
  microsomal CLint: < 3.75 µL/min/mg
[4]
  EC50: 14 pM
[5]
  EC50: 1 pM
[6]; 10 nmol/kg subcutaneous every 3 days
  Liver-body ratio: 0.032 ± 0.003 g/g
[6]; 10 nmol/kg subcutaneous every 3 days, first experiment
  Change rate of body weight on Day 22: −29.19 ± 2.94%
[6]; 10 nmol/kg, second experiment with similar protocol
  Change rate of body weight on Day 22: −26.32 ± 1.91%
[6]; Day 0 (at grouping), 10 nmol/kg group
  Fasting blood glucose, Day 0: 8.2 ± 0.3 mmol/L
[6]; Day 10, 10 nmol/kg subcutaneous every 3 days
  Fasting blood glucose, Day 10: 5.2 ± 0.9 mmol/L
[6]; Day 20, 10 nmol/kg subcutaneous every 3 days
  Fasting blood glucose, Day 20: 6.2 ± 0.4 mmol/L

## CC[C@H](C)[C@H](NC(=O)[C@H](Cc1ccccc1)NC(=O)[C@@H]1CCCCNC(=O)CN(C(=O)COCCOCCNC(=O)COCCOCCNC(=O)CC[C@H](NC(=O)CCCCCCCCCCCCCCCCCCC(=O)O)C(=O)O)CC(=O)NCCCC[C@H](NC(=O)[C@H](CCCCN)NC(=O)[C@H](CC(=O)O)NC(=O)[C@H](CC(C)C)NC(=O)[C@](C)(CC(C)C)NC(=O)[C@@H](NC(=O)[C@H](CO)NC(=O)[C@H](Cc2ccc(O)cc2)NC(=O)[C@H](CC(=O)O)NC(=O)[C@H](CO)NC(=O)[C@@H](NC(=O)[C@H](Cc2ccccc2)NC(=O)[C@@H](NC(=O)CNC(=O)[C@H](CCC(N)=O)NC(=O)C(C)(C)NC(=O)[C@@H](N)Cc2ccc(O)cc2)[C@@H](C)O)[C@@H](C)O)[C@@H](C)CC)C(=O)N[C@@H](C)C(=O)N[C@@H](CCC(N)=O)C(=O)NC(C)(C)C(=O)N1)C(=O)N[C@@H](CCC(=O)O)C(=O)N[C@@H](Cc1ccc(O)cc1)C(=O)N[C@@H](CC(C)C)C(=O)N[C@@H](CC(C)C)C(=O)N[C@@H](CCC(=O)O)C(=O)NCC(=O)NCC(=O)N1CCC[C@H]1C(=O)N[C@@H](CO)C(=O)N[C@@H](CO)C(=O)NCC(=O)N[C@@H](C)C(=O)N1CCC[C@H]1C(=O)N1CCC[C@H]1C(=O)N1CCC[C@H]1C(=O)N[C@@H](CO)C(N)=O [Example 1, YAibQGT FTSDY SIα- MeLLD K^1KAQAib ^1KFIEY LLEGG PSSGA PPPS-NH2 (SEQ ID NO: 1)]
[3]
  half-life at 1 μM: > 3.08 h
  microsomal CLint at 1 μM: < 3.75 µL/min/mg
[4]
  EC50: 9 pM
[5]
  EC50: 1 pM
